PubChem BioAssay AID248 (DTP/NCI, 2004)
Where “and” joins values, the source holds several entries; their conditions need not be identical. Identical values can stand only once. Toxic doses and inconclusive results are not listed. Cut-off read from the data, not from the text of the source: active = T/C of 150% or more; inactive = T/C below 125%.

System: L1210 leukemia ip in BDF1 mice, survival T/C
Assay: NCI In Vivo Anticancer Drug Screen. Data for tumor model L1210 Leukemia (intraperitoneal) in B6D2F1 (BDF1) mice
Conditions: endpoint: mean survival time, higher = longer survival
Outline: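 Transplantable tumor model; survival measured in treated vs vehicle control mice. Value = treated/control.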

[1] = dose: 50.0 mg/kg/injection, schedule: Q04DX003 (ip), vehicle: saline
[2] = dose: 100.0 mg/kg/injection, schedule: Q01DX001 (ip), vehicle: saline
[3] = dose: 100.0 mg/kg/injection, schedule: Q04DX003 (ip), vehicle: saline
[4] = dose: 200.0 mg/kg/injection, schedule: Q01DX001 (ip), vehicle: saline
[5] = dose: 100.0 mg/kg/injection, schedule: Q04DX002 (ip), vehicle: Klucel (hydroxypropylcellulose) (HPC)
[6] = dose: 200.0 mg/kg/injection, schedule: Q04DX002 (ip), vehicle: Klucel (hydroxypropylcellulose) (HPC)
[7] = dose: 400.0 mg/kg/injection, schedule: Q04DX002 (ip), vehicle: Klucel (hydroxypropylcellulose) (HPC)
[8] = dose: 400.0 mg/kg/injection, schedule: Q01DX001 (ip), vehicle: saline
[9] = dose: 100.0 mg/kg/injection, schedule: Q01DX001 (ip), vehicle: carboxymethylcellulose (CMC)
[10] = dose: 200.0 mg/kg/injection, schedule: Q01DX001 (ip), vehicle: carboxymethylcellulose (CMC)
[11] = dose: 400.0 mg/kg/injection, schedule: Q01DX001 (ip), vehicle: carboxymethylcellulose (CMC)
[12] = dose: 100.0 mg/kg/injection, schedule: Q04DX002 (ip), vehicle: saline
[13] = dose: 200.0 mg/kg/injection, schedule: Q04DX002 (ip), vehicle: saline
[14] = dose: 100.0 mg/kg/injection, schedule: Q04DX002 (ip), vehicle: saline with Tween-80
[15] = dose: 200.0 mg/kg/injection, schedule: Q04DX002 (ip), vehicle: saline with Tween-80
[16] = dose: 400.0 mg/kg/injection, schedule: Q04DX002 (ip), vehicle: saline with Tween-80
[17] = dose: 100.0 mg/kg/injection, schedule: Q01DX009 (ip), vehicle: saline
[18] = dose: 200.0 mg/kg/injection, schedule: Q04DX003 (ip), vehicle: saline
[19] = dose: 400.0 mg/kg/injection, schedule: Q04DX003 (ip), vehicle: saline
[20] = dose: 100.0 mg/kg/injection, schedule: Q04DX003 (ip), vehicle: Klucel (hydroxypropylcellulose) (HPC)
[21] = dose: 200.0 mg/kg/injection, schedule: Q04DX003 (ip), vehicle: Klucel (hydroxypropylcellulose) (HPC)
[22] = dose: 400.0 mg/kg/injection, schedule: Q04DX003 (ip), vehicle: Klucel (hydroxypropylcellulose) (HPC)
[23] = dose: 100.0 mg/kg/injection, schedule: Q01DX009 (ip), vehicle: saline with Tween-80
[24] = dose: 200.0 mg/kg/injection, schedule: Q01DX009 (ip), vehicle: saline with Tween-80
[25] = dose: 400.0 mg/kg/injection, schedule: Q01DX009 (ip), vehicle: saline with Tween-80
[26] = dose: 100.0 mg/kg/injection, schedule: Q04DX003 (ip), vehicle: saline with Tween-80
[27] = dose: 200.0 mg/kg/injection, schedule: Q04DX003 (ip), vehicle: saline with Tween-80
[28] = dose: 400.0 mg/kg/injection, schedule: Q04DX003 (ip), vehicle: saline with Tween-80
[29] = dose: 50.0 mg/kg/injection, schedule: Q01DX009 (ip), vehicle: saline with Tween-80

Measured: T/C

BrCc1cccc2ccccc12
inactive: dose: 25.0 mg/kg/injection, schedule: Q01DX009 (ip), vehicle: acetone 96 % of control | dose: 50.0 mg/kg/injection, schedule: Q01DX009 (ip), vehicle: acetone 95 % of control | [1] 90 % of control | [2] 98 % of control | dose: 100.0 mg/kg/injection, schedule: Q01DX009 (ip), vehicle: acetone 95 % of control | [3] 87 % of control | [4] 102 % of control

C1CCC(N2CN(C3CCCCC3)CN(C3CCCCC3)C2)CC1
inactive: [5] 97 % of control | [6] 106 % of control | [7] 115 % of control

O=C(CC(=O)c1ccco1)c1ccccc1
inactive: [2] 102 % of control | [4] 100 % of control | [8] 96 % of control

CCOC(=O)c1c(C)c2c(n1C)CCC(CCC(C)=O)C2=O (configuration not stated)
inactive: [9] 104 % of control | [10] 97 % of control | [11] 93 % of control

CCC[CH2][Sn]([CH2]C)([CH2]C)[CH2]C
inactive: [12] 96 % of control | [13] 101 % of control

O=C1/C(=C/c2ccncc2)CCc2cc(Cl)ccc21
inactive: dose: 100.0 mg/kg/injection, schedule: Q04DX003 (ip), vehicle: carboxymethylcellulose (CMC) 107 % of control | dose: 200.0 mg/kg/injection, schedule: Q04DX003 (ip), vehicle: carboxymethylcellulose (CMC) 111 % of control | dose: 400.0 mg/kg/injection, schedule: Q04DX003 (ip), vehicle: carboxymethylcellulose (CMC) 96 % of control

COc1ccc(/C=C(\C#N)c2ccc([N+](=O)[O-])cc2)cc1OC
inactive: [14] 90 % of control | [15] 90 % of control | [16] 90 % of control

CC(=O)CCC(=O)OCCOC(=O)CCC(C)=O
inactive: [17] 98 % of control and 105 % of control | [3] 96 % of control and 104 % of control | dose: 200.0 mg/kg/injection, schedule: Q01DX009 (ip), vehicle: saline 93 % of control and 95 % of control | [18] 100 % of control | dose: 400.0 mg/kg/injection, schedule: Q01DX009 (ip), vehicle: saline 98 % of control and 104 % of control | [19] 100 % of control and 106 % of control

Cc1ccc(Br)c([N+](=O)[O-])c1
inactive: dose: 22.2 mg/kg/injection, schedule: Q01DX001 (ip), vehicle: carboxymethylcellulose (CMC) 93 % of control | dose: 33.35 mg/kg/injection, schedule: Q01DX001 (ip), vehicle: carboxymethylcellulose (CMC) 93 % of control | dose: 50.0 mg/kg/injection, schedule: Q01DX001 (ip), vehicle: carboxymethylcellulose (CMC) 93 % of control | dose: 75.0 mg/kg/injection, schedule: Q01DX001 (ip), vehicle: carboxymethylcellulose (CMC) 110 % of control | [9] 109 % of control | [10] 115 % of control | [11] 107 % of control

O=C(Nc1cc(S(=O)(=O)F)ccc1Cl)c1ccc2ccccc2c1O
inactive: dose: 100.0 mg/kg/injection, schedule: Q01DX009 (ip), vehicle: Klucel (hydroxypropylcellulose) (HPC) 97 % of control | [20] 91 % of control | dose: 200.0 mg/kg/injection, schedule: Q01DX009 (ip), vehicle: Klucel (hydroxypropylcellulose) (HPC) 101 % of control | [21] 98 % of control | dose: 400.0 mg/kg/injection, schedule: Q01DX009 (ip), vehicle: Klucel (hydroxypropylcellulose) (HPC) 95 % of control | [22] 104 % of control

CCCCCCC(=O)CCCC
inactive: [23] 102 % of control | [3] 98 % of control | [24] 111 % of control | [18] 88 % of control | [25] 98 % of control | [19] 94 % of control

COC(=O)C1(C)CCCC2(C)C1CCC13OCC(CC21)C1(C(C)C)OC31 (configuration not stated)
inactive: [23] 96 % of control | [24] 93 % of control | [25] 95 % of control

c1ccc(CCCSc2ccccc2)cc1
inactive: [23] 120 % of control | [26] 108 % of control | [24] 104 % of control | [27] 94 % of control | [28] 100 % of control

c1ccc2c(B(c3cccc4ccccc34)c3cccc4ccccc34)cccc2c1
inactive: [20] 94 % of control | [21] 97 % of control | [22] 102 % of control

CCCN(CCC)CCCOC(=O)c1ccc(N)cc1
inactive: dose: 25.0 mg/kg/injection, schedule: Q01DX009 (ip), vehicle: saline 99 % of control | dose: 44.0 mg/kg/injection, schedule: Q04DX003 (ip), vehicle: saline 86 % of control | dose: 50.0 mg/kg/injection, schedule: Q01DX009 (ip), vehicle: saline 106 % of control | [1] 104 % of control | dose: 66.0 mg/kg/injection, schedule: Q04DX003 (ip), vehicle: saline 88 % of control | dose: 67.0 mg/kg/injection, schedule: Q04DX003 (ip), vehicle: saline 93 % of control | [17] 89 % of control

Cc1cc(Cl)nc2ccc(Cc3ccccc3)cc12
inactive: [2] 102 % of control | [4] 96 % of control | [8] 103 % of control

O=C(Nc1ccc2c(c1)OCO2)O/N=C\c1ccccn1
inactive: [29] 103 % of control | [23] 86 % of control and 92 % of control | [26] 100 % of control | [24] 86 % of control and 92 % of control | [27] 101 % of control | [25] 91 % of control | [28] 95 % of control

CC1CCCC(C)N1NC1=NCCO1 (configuration not stated)
inactive: dose: 25.0 mg/kg/injection, schedule: Q01DX009 (ip), vehicle: saline with Tween-80 96 % of control | [29] 98 % of control | [23] 97 % of control | [26] 100 % of control

C#CC(NC(C)(C)CC(C)(C)C)C(C)C (configuration not stated)
inactive: [12] 109 % of control | [13] 109 % of control | dose: 400.0 mg/kg/injection, schedule: Q04DX002 (ip), vehicle: saline 100 % of control

CN1CCN(CCN2CCN(CCCN3c4ccccc4Sc4ccc(Cl)cc43)CC2)C1=O
inactive: [9] 104 % of control

CCOC(=O)CNC1=NCCO1
inactive: [23] 91 % of control | [24] 96 % of control | [25] 93 % of control

CCCCc1c(O)nc(NCCCC(N)C(=O)O)[nH]c1=O (configuration not stated)
inactive: dose: 75.0 mg/kg/injection, schedule: Q01DX001 (ip), vehicle: saline 93 % of control | dose: 150.0 mg/kg/injection, schedule: Q01DX001 (ip), vehicle: saline 95 % of control | dose: 300.0 mg/kg/injection, schedule: Q01DX001 (ip), vehicle: saline 96 % of control

COc1ccc(-n2cccc2/C=N\O)cc1OC
inactive: [5] 89 % of control | [6] 100 % of control | [7] 96 % of control

O=C1OC(c2cccc(Cl)c2)=N/C1=C\c1ccc2c(c1)OCO2
inactive: [14] 95 % of control | [15] 89 % of control | [16] 92 % of control

NS(=O)(=O)CCCCCCN1C(=O)c2ccccc2C1=O
inactive: [26] 91 % of control | [27] 93 % of control | [28] 93 % of control

Cn1[nH]c(NC=O)c2cc3c(=O)[nH]c(=O)cc3nc21
inactive: dose: 100.0 mg/kg/injection, schedule: Q01DX001 (ip), vehicle: Klucel (hydroxypropylcellulose) (HPC) 93 % of control | dose: 200.0 mg/kg/injection, schedule: Q01DX001 (ip), vehicle: Klucel (hydroxypropylcellulose) (HPC) 90 % of control

Cc1cc2c(=O)[nH]c(N)nc2nc1C
inactive: dose: 100.0 mg/kg/injection, schedule: Q01DX Z (ip), vehicle: methylcellulose (MC) 95 % of control | dose: 200.0 mg/kg/injection, schedule: Q01DX Z (ip), vehicle: methylcellulose (MC) 94 % of control

CCCCCCCCCCC1CCC(CCCCCCCCCC)CC1 (configuration not stated)
inactive: dose: 100.0 mg/kg/injection, schedule: Q01DX001 (ip), vehicle: other 106 % of control | dose: 200.0 mg/kg/injection, schedule: Q01DX001 (ip), vehicle: other 107 % of control | dose: 400.0 mg/kg/injection, schedule: Q01DX001 (ip), vehicle: other 91 % of control
